# Reference: PMC8286840, “Identifying SARS-CoV-2 antiviral compounds by screening for small molecule inhibitors of Nsp3 papain-like protease” (Biochemical Journal, 2021)
# Structures can show the parent of a compound that is named as a salt. Where two headings read alike, the source gives them in different places.
# Assays:
# [1] = target: T1, SARS-CoV-2 PLpro (nsp3 1564–1878) (Severe acute respiratory syndrome coronavirus 2, UniProt P0DTD1); assay: biochemical; set-up: FRET-quenched peptide (Pro3) cleavage by PLpro, 10 min pre-incubation, slope over 20 min, normalised to no-compound control; details: high concentration screen, read-out: % of control remaining
# [2] = target: T1, SARS-CoV-2 PLpro (nsp3 1564–1878); assay: biochemical; set-up: FRET-quenched peptide (Pro3) cleavage by PLpro, 10 min pre-incubation, slope over 20 min, normalised to no-compound control; details: low concentration screen, read-out: % of control remaining
smiles,measurement,setting,value
"O=C(Nc1cc(Cl)cc(Cl)c1)[C@H]1CCCC[C@H]1C(=O)O [(1R,2S)-VU0155041]",remaining activity at 3.75 µM,[1]; Well no.=8475,103%
same,remaining activity at 1.25 µM,[2]; Well no.=8475,99%
CCOC(=O)C1=C(N)Oc2ccc(Br)cc2[C@H]1[C@H](C#N)C(=O)OCC [HA14-1],remaining activity at 3.75 µM,[1]; Well no.=5007,101%
same,remaining activity at 3.75 µM,[1]; Well no.=6296,102%
same,remaining activity at 1.25 µM,[2]; Well no.=5007,105%
same,remaining activity at 1.25 µM,[2]; Well no.=6296,101%
CCSC(N)=Nc1ccc(C(F)(F)F)cc1 [TFPI hydrochloride],remaining activity at 3.75 µM,[1]; Well no.=1389,93.8%
same,remaining activity at 1.25 µM,[2]; Well no.=1389,95.8%
CNC(=O)c1cc(Oc2ccc(NC(=O)Nc3ccc(Cl)c(C(F)(F)F)c3)cc2)ccn1 [Sorafenib],remaining activity at 3.75 µM,[1]; Well no.=2941,97.8%
same,remaining activity at 1.25 µM,[2]; Well no.=2941,101%
CCNC(=O)[C@@H]1CCCN1C(=O)[C@H](CCCN=C(N)N)NC(=O)[C@H](CC(C)C)NC(=O)[C@@H](C)NC(=O)[C@H](Cc1ccc(O)cc1)NC(=O)[C@H](CO)NC(=O)[C@H](Cc1c[nH]c2ccccc12)NC(=O)[C@H](Cc1cnc[nH]1)NC(=O)[C@@H]1CCC(=O)N1 [Alarelin (Acetate)],remaining activity at 3.75 µM,[1]; Well no.=8383,97%
same,remaining activity at 1.25 µM,[2]; Well no.=8383,98.8%
O=C(c1cc(O)c(O)c([N+](=O)[O-])c1)c1ccccc1F [Ro 41-0960],remaining activity at 3.75 µM,[1]; Well no.=1162,104%
same,remaining activity at 1.25 µM,[2]; Well no.=1162,102%
CO[C@@]1(NC(=O)CSCC#N)C(=O)N2C(C(=O)O)=C(CSc3nnnn3C)CS[C@@H]21 [Cefmetazole sodium],remaining activity at 3.75 µM,[1]; Well no.=134,99.6%
same,remaining activity at 1.25 µM,[2]; Well no.=134,101%
CCCCCCCCCCCCCCCC(=O)NCC(COP(=O)([O-])OCC[N+](C)(C)C)OCC (racemic) [rac-2-Ethoxy-3-hexadecanamido-1-propylphosphocholine],remaining activity at 3.75 µM,[1]; Well no.=747,94.6%
same,remaining activity at 1.25 µM,[2]; Well no.=747,93.3%
c1ccc2c(N3CCNCC3)cccc2c1 [1-(1-Naphthyl)piperazine hydrochloride],remaining activity at 3.75 µM,[1]; Well no.=1467,99.2%
same,remaining activity at 1.25 µM,[2]; Well no.=1467,99.5%
"CN1CCC(Nc2ncc3ncnc(Nc4ccc(F)c(Cl)c4)c3n2)CC1 [BIBX 1382 dihydrochloride - N8-(3-Chloro-4-fluorophenyl)-N2-(1-methyl-4-piperidinyl)-pyrimido[5,4-d]pyrimidine-2,8-diamine dihydrochloride]",remaining activity at 3.75 µM,[1]; Well no.=2528,91%
same,remaining activity at 1.25 µM,[2]; Well no.=2528,96.6%
Cc1cnc(C(=O)O)c[n+]1[O-] [Acipimox],remaining activity at 3.75 µM,[1]; Well no.=2069,104%
same,remaining activity at 1.25 µM,[2]; Well no.=2069,102%
CCCCOCCOc1ccc(-c2ccc3c(c2)/C=C(/C(=O)Nc2ccc([S@@+]([O-])Cc4cncn4CCC)cc2)CCCN3CC(C)C)cc1 [Cenicriviroc],remaining activity at 3.75 µM,[1]; Well no.=8515,105%
same,remaining activity at 1.25 µM,[2]; Well no.=8515,104%
Cc1ncc(CN2CC=C(c3ccccc3)CC2)c(N)n1 [Ro 10-5824 (dihydrochloride)],remaining activity at 3.75 µM,[1]; Well no.=7039,106%
same,remaining activity at 1.25 µM,[2]; Well no.=7039,105%
C=C1C(=O)[C@]23[C@H](CC[C@@H]1[C@@H]2O)[C@]12CO[C@@]3(O)[C@H](O)[C@H]1C(C)(C)CC[C@@H]2O [Rubescensin A],remaining activity at 3.75 µM,[1]; Well no.=3707,93.6%
same,remaining activity at 1.25 µM,[2]; Well no.=3707,95.2%
"O=S(=O)(c1cccc2c(I)cccc12)N1CCCNCC1 [ML-7, Hydrochloride]",remaining activity at 3.75 µM,[1]; Well no.=2491,103%
same,remaining activity at 1.25 µM,[2]; Well no.=2491,103%
Cn1cc(C2=C(c3ccc(Cl)cc3Cl)C(=O)NC2=O)c2ccccc21 [SB-216763],remaining activity at 3.75 µM,[1]; Well no.=3035,89.6%
same,remaining activity at 1.25 µM,[2]; Well no.=3035,87.5%
O=C1CN2Cc3c(ccc(Cl)c3Cl)N=C2N1 [Anagrelide HCl],remaining activity at 3.75 µM,[1]; Well no.=5022,99%
same,remaining activity at 1.25 µM,[2]; Well no.=5022,93.8%
c1ccc(-c2nn3c(c2-c2ccnc4cc(OCCN5CCOCC5)ccc24)CCC3)nc1 [LY2109761],remaining activity at 3.75 µM,[1]; Well no.=4685,103%
same,remaining activity at 1.25 µM,[2]; Well no.=4685,103%
NC(N)=NCCC[C@H](NC(=O)c1sccc1NS(=O)(=O)c1cccc2nsnc12)C(=O)O [EG00229],remaining activity at 3.75 µM,[1]; Well no.=8174,96.8%
same,remaining activity at 1.25 µM,[2]; Well no.=8174,101%
CCCCOCCOc1ccc(-c2ccc3c(c2)/C=C(/C(=O)Nc2ccc([S@@+]([O-])Cc4cncn4CCC)cc2)CCCN3CC(C)C)cc1 [Cenicriviroc Mesylate],remaining activity at 3.75 µM,[1]; Well no.=8311,99.6%
same,remaining activity at 1.25 µM,[2]; Well no.=8311,99.4%
C=CCN1CC[C@]23c4c5ccc(O)c4O[C@H]2C(=O)CC[C@@]3(O)[C@H]1C5 [Naloxone],remaining activity at 3.75 µM,[1]; Well no.=2060,103%
same,remaining activity at 1.25 µM,[2]; Well no.=2060,104%
Cc1ccc(-c2ccc3c(c2)C=C(C(=O)Nc2ccc(C[N+](C)(C)C4CCOCC4)cc2)CCC3)cc1 [TAK-779],remaining activity at 3.75 µM,[1]; Well no.=8357,101%
same,remaining activity at 1.25 µM,[2]; Well no.=8357,102%
C[N+]1(C)CCC[C@H]1C(=O)O,remaining activity at 3.75 µM,[1]; Well no.=3118,105%
same,remaining activity at 1.25 µM,[2]; Well no.=3118,107%
CCOCc1nc2c(N)nc3ccccc3c2n1CC(C)(C)O [Resiquimod],remaining activity at 3.75 µM,[1]; Well no.=5488,107%
same,remaining activity at 3.75 µM,[1]; Well no.=8499,106%
same,remaining activity at 1.25 µM,[2]; Well no.=5488,107%
same,remaining activity at 1.25 µM,[2]; Well no.=8499,102%
CC(C)(C)NCC(O)COc1nsnc1N1CCOCC1 (stereo not drawn) [S(-)-Timolol maleate],remaining activity at 3.75 µM,[1]; Well no.=1483,96%
same,remaining activity at 1.25 µM,[2]; Well no.=1483,97.1%
COc1cc(C(=O)OC2CC3CCC(C2)N3C)ccc1O (stereo not shown) [Fillalbin],remaining activity at 3.75 µM,[1]; Well no.=3539,97.4%
same,remaining activity at 1.25 µM,[2]; Well no.=3539,92.8%
CCN(CC)Cc1ccc(C(=O)N(CCc2ccccc2OC)[C@@H]2CCNC2)cc1 [PF429242 (dihydrochloride)],remaining activity at 3.75 µM,[1]; Well no.=6996,97.5%
same,remaining activity at 1.25 µM,[2]; Well no.=6996,102%
CCCCC[C@@H](/C=C/C=C\CCCCCCCC(=O)O)OO [13(S)-HPODE],remaining activity at 3.75 µM,[1]; Well no.=4388,101%
same,remaining activity at 1.25 µM,[2]; Well no.=4388,102%
CCc1c(C(=O)C(N)=O)c2c(OCC(=O)O)cccc2n1Cc1ccccc1 [Varespladib (LY315920)],remaining activity at 3.75 µM,[1]; Well no.=4663,104%
same,remaining activity at 1.25 µM,[2]; Well no.=4663,105%
"COc1cc(C(=O)c2ccc3ncccc3c2)cc(OC)c1OC [quinolin-6-yl(3,4,5-trimethoxyphenyl)methanone]",remaining activity at 3.75 µM,[1]; Well no.=6127,97.9%
same,remaining activity at 1.25 µM,[2]; Well no.=6127,99.8%
COc1ccc(C2(O)OC(=O)C(c3ccc4c(c3)OCO4)=C2Cc2cc(OC)c(OC)c(OC)c2)cc1 (stereo not shown) [PD-156707],remaining activity at 3.75 µM,[1]; Well no.=5693,104%
same,remaining activity at 1.25 µM,[2]; Well no.=5693,101%
Cc1cc(Nc2cc(CN3CCOCC3)c3nc(C)c(Cc4ccc(Cl)cc4F)n3n2)n[nH]1 [LY2784544],remaining activity at 3.75 µM,[1]; Well no.=4806,101%
same,remaining activity at 1.25 µM,[2]; Well no.=4806,98.3%
NCC[C@H](O)C(=O)N[C@@H]1C[C@H](N)[C@@H](O[C@H]2O[C@H](CN)[C@@H](O)[C@H](O)[C@H]2O)[C@H](O)[C@H]1O[C@H]1O[C@H](CO)[C@@H](O)[C@H](N)[C@H]1O [Amikacin sulfate],remaining activity at 3.75 µM,[1]; Well no.=5313,99.9%
same,remaining activity at 1.25 µM,[2]; Well no.=5313,107%
